Data taken from patent US10238671B2, “Hydrosoluble hydroxybisphosphonic derivatives of doxorubicin” (Atlanthera, priority 2014, dated 2019).
≈ marks a conversion by molar mass, not a printed value.

Legend:
[1] = Solubility of compounds (II), (III) and (IV) compared with products (a) and (b); conditions: for solubility: aqueous buffer
[2] = system: human tumor line HOS (human osteosarcoma, ATCC); assay: Orthotopic xenogeneic murine model of osteolytic osteosarcoma (paratibial injection of HOS): tumor volume and radiographic evaluation; format: in vivo, immunosuppressed mice; conditions: for Size of extraosseous tumors in relation to control group and vector 5 and/or doxorubicin groups: 25 μmol/kg 2x/wk intraperitoneally, HOS tumor in mice; for Fractures of the tibial metaphysis: Day 27, radiography, 90% of control animals have fractures; for Bone lesions (metaphyseal fractures, alteration of cortical integrity, new formation of ectopic bone): radiographic evaluation, compared with control and other groups
Procedure: The antitumor activity of compounds (II) and (III) according to the invention was evaluated in an orthotopic, xenogeneic murine model of osteolytic osteosarcoma induced by paratibial injection of the human tumor line HOS (human osteosarcoma, ATCC) in immunosuppressed mice. The activity of the molecules according to the invention was compared with that of the two main subunits comprising them (doxorubicin and vector 5) alone or in combination. The treatments, on 10 animals per group, began the day following tumor induction and were administered intraperitoneally 1 to 2 times per week for 5 weeks. Tumor volumes were measured twice per week using a slide caliper and radiographic evaluation was carried out once per week. Tumor volume, expressed in mm^3, is calculated according to the following formula: V=(L×l^2)/2 (L and l, expressed in mm, correspond to the large length and the small length of the tumor, respectively).
The following treatment groups were thus studied, each on 10 mice: […]

[3] = Toxicity in mice (weight loss, cardiotoxicity, maximum usable dose); conditions: for Dose giving similar weight loss, relative to doxorubicin alone (maximum usable dose study): mice, intravenously or intraperitoneally
[4] = 2 mg/ml solution of TRIS in water

Row | Structure (SMILES) | Solubility in 2 mg/ml solution of TRIS in water [1, 4] | Solubility in DPBS or water ([1]; DPBS or water) | Size of extraosseous tumors in relation to control group and vector 5 and/or doxorubicin groups [2] | Fractures of the tibial metaphysis [2] | Bone lesions (metaphyseal fractures, alteration of cortical integrity, new formation of ectopic bone) [2] | Dose giving similar weight loss, relative to doxorubicin alone (maximum usable dose study) [3] [times higher] | solubility ([1]; DPBS or water) [mM] | other results
1 | COc1cccc2c1C(=O)c1c(O)c3c(c(O)c1C2=O)C[C@@](O)(/C(CO)=N/NC(=S)N/N=C/c1cccc(OCCCN(C)CCC(O)(P(=O)(O)O)P(=O)(O)O)c1)C[C@@H]3O[C@H]1C[C@H](N)[C@H](O)[C@H](C)O1 [(a)] | insoluble | insoluble |  |  |  |  |  | Solubility in organic solvents ([1]; ethanol or dimethylsulfoxide or mixtures thereof with water): insoluble; Solubility in water with organic or inorganic additives ([1]; water with organic additives (Tween, PEG, glycerin, glucose, TRIS) or inorganic additives (sodium carbonate or bicarbonate)): insoluble
2 | COc1cccc2c1C(=O)c1c(O)c3c(c(O)c1C2=O)C[C@@](O)(/C(CO)=N/NC(=S)N/N=C/c1cccc(OCCCN(C)CCC(O)(P(=O)(O)O)P(=O)(O)O)c1)C[C@@H]3O[C@H]1C[C@H](NC(=O)CCC(=O)O)[C@H](O)[C@H](C)O1 [(b)] | poorly soluble | insoluble |  |  |  |  |  | solubility [1, 4]: ~1 mM (≈ 1.13 mg/mL)
3 | COc1cccc2c1C(=O)c1c(O)c3c(c(O)c1C2=O)C[C@@](O)(/C(CO)=N/NC(=S)NNC(=O)CN(CCN(CC(=O)O)CC(=O)NNC(=S)N/N=C/c1cccc(OCCCN(C)CCC(O)(P(=O)(O)O)P(=O)(O)O)c1)CC(=O)O)C[C@@H]3O[C@H]1C[C@H](N)[C@H](O)[C@H](C)O1 [Compound (II)] |  |  | significantly reduce | not detected in any of the mice | reduce | 13 | ~255 (≈ 354 mg/mL) | Animals with a tumor greater than 1500 mm^3 in volume ([2]; Day 32, 10 mice per group): only one mouse; Signs of toxicity (very early weight loss, cardiotoxicity) ([3]; 20 μmol/kg (molar equivalent dose to doxorubicin 12 mg/kg)): do not induce these signs of toxicity
4 | COc1cccc2c1C(=O)c1c(O)c3c(c(O)c1C2=O)C[C@@](O)(/C(CO)=N/NC(=S)NNCc1cccc(OCCCN(C)CCC(O)(P(=O)(O)O)P(=O)(O)O)c1)C[C@@H]3O[C@H]1C[C@H](N)[C@H](O)[C@H](C)O1 [Compound (III)] |  |  | significantly reduce | not detected in any of the mice | reduce | 13 | ~160 (≈ 164 mg/mL) | 
5 | COc1cccc2c1C(=O)c1c(O)c3c(c(O)c1C2=O)C[C@@](O)(/C(CO)=N/OCC(O)(P(=O)(O)O)P(=O)(O)O)C[C@@H]3O[C@H]1C[C@H](N)[C@H](O)[C@H](C)O1 [Compound (IV)] |  |  |  |  |  | 13 | ~315 (≈ 240 mg/mL) | 
6 | COc1cccc2c1C(=O)c1c(O)c3c(c(O)c1C2=O)C[C@@](O)(C(=O)CO)C[C@@H]3O[C@H]1C[C@H](N)[C@H](O)[C@H](C)O1 [doxorubicin] |  |  |  |  | equivalent to those of the control group |  |  | Outcome after Day 27 (tumor volume) ([2]; after Day 27): had to be euthanized because of excessively large tumor volumes; Weight loss ([3]; dose 12 mg/kg (20 μmol/kg), requiring euthanasia after 2 weeks of treatment): > 10%
